The test relates to SARS-CoV-2. The settings on record: 48 h; for inhibition of viral infection: 80 μM peptide, Vero E6 cells.

Where a SMILES comes first, the peptide text is derived from it. Where no end group is shown, it is not given here.

On to SDWKTD [SD6, SDWKTD], for which the “inhibition of viral infection” value amounted to 98% and the EC50 (commonly the concentration at which the effect is half-maximal) was 6.4 µM.

Regarding DQTKFPIVNAEL-OH [DL12], the “inhibition of viral infection” value was 99% and the EC50 amounted to 5 µM.

In the case of HPVTGQF [HF7, HPVTGQF], the “inhibition of viral infection” value came out at 89% and the EC50 was determined as 11.4 µM.

As to `C[C@H](NC(=O)[C@@H](N)CCCNC(=N)N)C(=O)NCC(=O)N[C@@H](CCCCN)C(=O)O` [RK4, RAGK] (H-RAGK-OH; N-terminus assumed), the “inhibition of viral infection” value is given as 99% and the response was half-maximal at 10 µM (EC50).

Source of the values: patent US12076364B2, “Use of interference peptide in preparation of anti-SARS-CoV-2 medicament” (KUNMING INSTITUTE OF ZOOLOGY, CHINESE ACADEMY OF SCIENCES, priority 2020, dated 2024).
